This is an account of results in PubChem BioAssay (NCI).

SMILES strings stand for the structures.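 All cell lines were grown in 96-well plates and treated with compound for 48 hours. GI50 marks 50% less growth. TGI denotes the concentration required for complete inhibition of growth.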

Some test systems named below: 786-0 renal; A549 NSCLC; ACHN renal; HL-60(TB) leukemia; HOP-92 NSCLC; OVCAR-4 ovarian; SN12C renal; SNB-19 CNS; U251 CNS.
Holding throughout (assay): growth of human tumour cells (NCI), 48 h

With `OCC(O)CC[CH2][Sn]([c]1ccccc1)([c]1ccccc1)[c]1ccccc1` (stereo not given), the GI50 is 14.8 µM with 786-0 renal; 10.7 µM with A549 NSCLC; 8.89 µM with ACHN renal; 11.3 µM in the assay with HL-60(TB) leukemia; 10.9 µM in the assay on HOP-92 NSCLC; 16.5 µM in the assay with OVCAR-4 ovarian. Further, the GI50 is 15.1 µM with SN12C renal, 19.4 µM in the assay on SNB-19 CNS and 15.6 µM in the assay with U251 CNS. The TGI in the assay with 786-0 renal worked out at 28.2 µM; in the assay with A549 NSCLC, 22.6 µM; in the assay with ACHN renal it was 21 µM; with HL-60(TB) leukemia, 35.3 µM; with HOP-92 NSCLC, 24 µM; in the assay on OVCAR-4 ovarian it was 32.2 µM. Further, the TGI in the assay on SN12C renal was 30.8 µM; with SNB-19 CNS it was 33.7 µM; in the assay on U251 CNS, 30.2 µM.
With `CN(C)CCNC(=O)c1ccc2ccc3cccnc3c2n1`, the TGI in the assay with 786-0 renal is greater than 100 µM; in the assay with A549 NSCLC, greater than 52.9 µM; in the assay with ACHN renal, 97.3 µM; with HL-60(TB) leukemia, greater than 84 µM; in the assay on HOP-92 NSCLC, 65.2 µM; in the assay with OVCAR-4 ovarian, greater than 69.2 µM. Further, the TGI in the assay on SN12C renal is greater than 92.9 µM; with SNB-19 CNS, greater than 93 µM; in the assay with U251 CNS it was greater than 88.8 µM.
For `O=C(Cc1ccccc1)Oc1ccc2c(-c3ccccc3)c(C(=O)Nc3ccc(Cl)cc3)c(=O)oc2c1`, the TGI in the assay on 786-0 renal, in the assay with A549 NSCLC, in the assay with ACHN renal, with HL-60(TB) leukemia, with HOP-92 NSCLC and in the assay with OVCAR-4 ovarian was greater than 100 µM throughout. In addition, the TGI in the assay on SN12C renal, in the assay with SNB-19 CNS and in the assay on U251 CNS was greater than 100 µM each time.
Turning to `O=C1c2ccn(CCCCN3CCOCC3)c2C(=O)c2c1c(O)c1ccccc1c2O`, the GI50 with 786-0 renal was 6.34 µM; in the assay on A549 NSCLC it was 14.4 µM; in the assay with ACHN renal, 10.8 µM; in the assay with HL-60(TB) leukemia, 9.07 µM; in the assay on OVCAR-4 ovarian, 30.3 µM; in the assay on SN12C renal it was 11.4 µM. Also, the figures for the GI50 in the assay on SNB-19 CNS and in the assay with U251 CNS were 19.6 µM and 10.9 µM, respectively. Further, the TGI was 25.2 µM in the assay with 786-0 renal; 38.7 µM in the assay on A549 NSCLC; 28.4 µM with ACHN renal; 59.9 µM in the assay with HL-60(TB) leukemia; greater than 100 µM with OVCAR-4 ovarian; 24 µM in the assay with SN12C renal. Also, the TGI was found to be 60.4 µM with SNB-19 CNS and 31.8 µM in the assay on U251 CNS.
As for `CC(NC(=O)c1ccccc1)C(=O)N(Cc1ccccc1)Cc1ccccc1` (stereo not given), the TGI in the assay with 786-0 renal is greater than 100 µM; with A549 NSCLC it was greater than 100 µM; in the assay with ACHN renal, greater than 100 µM; in the assay with HOP-92 NSCLC, 68.7 µM; with OVCAR-4 ovarian it was 95.3 µM; in the assay with SN12C renal it was greater than 100 µM. Besides, the TGI is greater than 100 µM with SNB-19 CNS and 91.7 µM in the assay on U251 CNS.
Consider `O=C1CCC2(c3ccc(F)cc3)Nc3ccccc3N12` (stereo not given), for which the TGI with 786-0 renal, in the assay on A549 NSCLC, in the assay with ACHN renal, with HL-60(TB) leukemia, in the assay with HOP-92 NSCLC and in the assay on OVCAR-4 ovarian was greater than 100 µM each time. For the same molecule, the TGI with SN12C renal and with U251 CNS was greater than 100 µM throughout.
For the molecule `O=CC1=CCCC2(C1)OCCO2`, the TGI in the assay on 786-0 renal, in the assay with A549 NSCLC, with HL-60(TB) leukemia, with HOP-92 NSCLC, with OVCAR-4 ovarian and in the assay on SN12C renal was greater than 100 µM in each case. Further, the TGI with SNB-19 CNS and with U251 CNS was greater than 100 µM in each case.
Regarding `CC(=O)O[C@]1(C(C)=O)CC[C@H]2[C@@H]3C[C@H](C)C4=CC(=O)C=C[C@]4(C)[C@@]3(F)[C@@H](O)C[C@@]21C`, the TGI was greater than 100 µM in the assay with 786-0 renal; greater than 100 µM with A549 NSCLC; greater than 100 µM with ACHN renal; greater than 100 µM in the assay with HL-60(TB) leukemia; greater than 100 µM in the assay on HOP-92 NSCLC; 90.8 µM with OVCAR-4 ovarian. The TGI in the assay on SNB-19 CNS and in the assay on U251 CNS was greater than 100 µM in each case.
For `COC(=O)N1[C@H]2Cc3c(OC)c(C)c(OC)c(OC)c3[C@@H]1/C(=C\c1cc(OC)c(OC)c(C)c1OC)N(Cc1ccccc1)C2=O`, the TGI in the assay with 786-0 renal was greater than 100 µM; in the assay with A549 NSCLC, greater than 100 µM; in the assay on ACHN renal it was greater than 100 µM; in the assay on HL-60(TB) leukemia, 30.2 µM; in the assay on HOP-92 NSCLC, greater than 100 µM; in the assay with OVCAR-4 ovarian it was greater than 100 µM. Also, the TGI with SN12C renal, in the assay on SNB-19 CNS and with U251 CNS was greater than 100 µM each time.
`O=[N+]([O-])c1ccccc1S(=O)c1ccccc1` (stereo not given): the TGI with 786-0 renal, in the assay on A549 NSCLC, in the assay on ACHN renal, with HL-60(TB) leukemia, with HOP-92 NSCLC and with OVCAR-4 ovarian was greater than 100 µM each time. Moreover, the TGI in the assay with SN12C renal, with SNB-19 CNS and in the assay on U251 CNS was greater than 100 µM in each case.
As for `[Cu+2].[Cu+2].[O-]c1ccccc1C=Nc1ccccc1[O-].[O-]c1ccccc1C=Nc1ccccc1[O-]`, the GI50 was 7.24 µM in the assay with 786-0 renal; 7.56 µM with A549 NSCLC; 7.81 µM in the assay on ACHN renal; 2.52 µM in the assay with HL-60(TB) leukemia; 2.6 µM in the assay with OVCAR-4 ovarian; 13.7 µM in the assay on SN12C renal. In addition, in the assay on SNB-19 CNS, the GI50 was 5.32 µM. Moreover, the TGI with 786-0 renal was 20.3 µM; with A549 NSCLC it was 27.8 µM; in the assay on ACHN renal, 20.8 µM; in the assay on HL-60(TB) leukemia it was 7.24 µM; in the assay with OVCAR-4 ovarian it was 8.23 µM; in the assay on SN12C renal, 27.3 µM. The same molecule returned a TGI in the assay on SNB-19 CNS of 17.8 µM.
Consider `Nc1nc2ncn(CCO)c2c(=O)[nH]1`, for which the TGI in the assay with 786-0 renal, with A549 NSCLC, with ACHN renal, in the assay with HL-60(TB) leukemia, in the assay on HOP-92 NSCLC and in the assay with SN12C renal was greater than 100 µM each time. In addition, the TGI with SNB-19 CNS and with U251 CNS was greater than 100 µM throughout.
As for `CCCCN(CC)C(=O)C(=O)C1C(=O)Nc2ccccc2S1=O` (stereo not given), the TGI with 786-0 renal, in the assay on A549 NSCLC, with ACHN renal, in the assay on HOP-92 NSCLC, with OVCAR-4 ovarian and in the assay on SN12C renal was greater than 100 µM throughout. Moreover, the TGI in the assay on SNB-19 CNS and in the assay on U251 CNS was greater than 100 µM in each case.
On to `C=C1C(=O)O[C@@H]2C[C@]3(C)[C@@H](C[C@H]12)[C@](C)(O)CC[C@@H]3O`, for which the TGI in the assay on 786-0 renal, in the assay with A549 NSCLC, in the assay with ACHN renal, in the assay on HOP-92 NSCLC, with OVCAR-4 ovarian and with SN12C renal was greater than 100 µM throughout. For the same molecule, the TGI in the assay on SNB-19 CNS and with U251 CNS was greater than 100 µM each time.
